The results in this text go back to patent US10738031B2, “N-[(heteroaryloxy)propanyl]heteroaryl carboxamides as antagonists of orexin subtype 1 receptor activity” (Boehringer Ingelheim International GmbH, priority 2016, dated 2020).

As a reminder, the half-life is how long it takes for the measured level to halve. Low values mean fast loss, high ones slow loss.

The target in one series is T1, human orexin 2 receptor (Homo sapiens, UniProt O43614).
T1 construct: stably expressing the full-length human orexin 2 receptor; expressed in transfected cells; host or cells: CHO-K1 (CHO-K1/hOX2), co-expressing aequorin
T1 sequence (O43614 1-444): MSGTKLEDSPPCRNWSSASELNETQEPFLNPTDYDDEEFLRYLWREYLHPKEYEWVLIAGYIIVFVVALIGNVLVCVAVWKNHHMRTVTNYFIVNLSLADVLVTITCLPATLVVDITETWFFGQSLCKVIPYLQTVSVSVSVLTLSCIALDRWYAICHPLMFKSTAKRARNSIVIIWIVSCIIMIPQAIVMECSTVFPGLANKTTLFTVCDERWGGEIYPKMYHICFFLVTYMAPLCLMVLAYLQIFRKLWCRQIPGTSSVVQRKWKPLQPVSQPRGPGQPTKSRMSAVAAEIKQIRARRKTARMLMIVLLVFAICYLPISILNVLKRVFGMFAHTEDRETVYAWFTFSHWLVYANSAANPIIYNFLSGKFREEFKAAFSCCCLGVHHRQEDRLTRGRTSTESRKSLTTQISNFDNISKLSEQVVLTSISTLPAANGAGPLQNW
The series is described as follows: Assay B: OX2R IP1 (in vitro OX2R potency). As to conditions: Table 3; 0.5 nM Orexin A concentration. Format: cell-based. The text has this: Activation of the orexin receptors expressed in cell lines results in an increase in intracellular IP3 concentration. IP1, a downstream metabolite of IP3, accumulates in cells following receptor activation and is stable in the presence of LiCl. Using Homogeneous Time-Resolved Fluorescence technology with Lumi4-Tb cryptate (commercially available from Cisbio Bioassay.) and a suitable fluorescence plate reader. This functional response is detectable and quantifiable as described in Trinquet et al. Anal. […] Curr. Chem. Genomics 2009, 3, 22-32. This technique is used to characterize pharmacological modification of the orexin receptors. B. In Vitro Testing of OX2R Potency: OX2R IP1 IP1 measurements are performed in CHO-K1 cells stably expressing the full-length human orexin 2 receptor and the aequorin photoprotein. Cells are cultivated in Ham's nutrient mixture F12 medium with 10% fetal calf serum, in a 37° C., 95% humidity and 5% CO2 incubator. The CHO-K1/hOX2 cell mass is expanded to larger cell numbers. The cells are obtained as frozen cells in cryo-vials and stored until use at -150° C. The viability of the cells after thawing is >90%. In preparation for the assay, 24 hours before the assay, the cells are thawed at 37° C. and immediately diluted with cell culture medium. After centrifugation, the cell pellet is resuspended in medium and then distributed into the assay plates with a density of 5000 cells/25 μL per well. The plates are incubated for one hour at room temperature to reduce edge effects before they are incubated for 24 hours at 37° C./5% CO2. […] On the day of the assay, cells in the plate are washed twice with 60 μL assay buffer (20 μL buffer remained in the wells after washing), followed by adding 5 μL per well of compounds diluted in assay buffer. […] The assay plate is incubated for 60 minutes at 37° C. Then 5 μL per well of Anti-IP1-Cryptate Tb solution and 5 μL per well of IP1-d2 dilution are added to all well of the plate and the plate is incubated for a further 60 minutes light protected at room temperature. […] The ratio between the emission at 665 nm and 615 is calculated by the reader. […] AssayExplorer (Accelrys). In order to establish an agonist concentration independent parameter, Kb values are calculated using the following equation: […] Sci. 1993, 14(4), 110-112).

Series [1] can be described thus: Assay C: Human MST t1/2 (stability in human liver microsomes). The class given is in vitro ADME. As to conditions: human liver microsomes. For orientation: Microsomes from liver hold many membrane-bound enzymes, among them those of drug oxidation.
The target in another series is T2, human Orexin 1 receptor (Homo sapiens, UniProt O43613).
T2 construct: stably expressing the full-length human Orexin 1 receptor; expressed in transfected cells; host or cells: CHO-K1 (CHO-K1/hOX1), co-expressing aequorin
T2 sequence (O43613 1-425): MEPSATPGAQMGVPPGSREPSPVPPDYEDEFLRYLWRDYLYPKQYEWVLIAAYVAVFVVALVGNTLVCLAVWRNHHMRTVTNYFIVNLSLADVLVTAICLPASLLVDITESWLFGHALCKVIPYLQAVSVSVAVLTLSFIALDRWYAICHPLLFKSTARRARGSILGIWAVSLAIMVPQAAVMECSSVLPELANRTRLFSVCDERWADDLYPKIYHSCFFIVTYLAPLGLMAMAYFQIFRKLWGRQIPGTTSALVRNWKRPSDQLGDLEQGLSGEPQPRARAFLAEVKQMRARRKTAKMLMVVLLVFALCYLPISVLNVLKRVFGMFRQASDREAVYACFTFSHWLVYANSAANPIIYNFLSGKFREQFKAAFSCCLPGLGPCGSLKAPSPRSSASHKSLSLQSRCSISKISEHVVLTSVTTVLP
The series is described as follows: Assay A: OX1R IP1 (in vitro OX1R potency). Format: cell-based. As to conditions: for Kb: Table 3.

`CC[C@@H](CNc1ccc(C(F)(F)F)cn1)N(CC)C(=O)c1nc(C)ccc1-n1nccn1` [Ex 71 in WO2016/ 034882, reference compound] registered a Kb on human orexin 2 receptor of 27 nM. The molecule further gave a half-life in series [1] of 0.075 h.
`CCN(C(=O)c1cc(C(F)(F)F)cnc1-n1cccn1)[C@@H](C)COc1ccc(C(F)(F)F)cn1` [Example 3]: the “OX2R Kb/OX1R Kb” value at human Orexin 1 receptor was determined as 177. Also, the Kb at human Orexin 1 receptor (Orexin A concentration 0.5 nM) stood at 1.2 nM; at human Orexin 1 receptor (Orexin A concentration 50 nM) it was 1.2 nM; at human orexin 2 receptor, 212 nM. Also, the half-life in series [1] was determined as 1.38 h.
As for `CCN(C(=O)c1nc(C)ccc1-n1nccn1)[C@@H](C)COc1ccc(C(F)(F)F)cn1` [Example 5], at human Orexin 1 receptor, the “OX2R Kb/OX1R Kb” value was 393. Moreover, the Kb on human Orexin 1 receptor (Orexin A concentration 50 nM) is 0.15 nM; on human orexin 2 receptor it was 59 nM. The same molecule registered a half-life in series [1] of 0.417 h.
Consider `CCN(C(=O)c1cc(F)cnc1-n1nccn1)[C@@H](C)COc1ccc(C(F)(F)F)cn1` [Example 6], for which the figures for the Kb at human Orexin 1 receptor (Orexin A concentration 0.5 nM), at human Orexin 1 receptor (Orexin A concentration 50 nM) and on human orexin 2 receptor were 1.2 nM, 1.5 nM and 844 nM, respectively. Besides, the half-life in series [1] was over 2.17 h.
Regarding `CCN(C(=O)c1nc(C)ccc1-n1nccn1)[C@@H](C)COc1ccc(Cl)cn1` [Example 8], the “OX2R Kb/OX1R Kb” value at human Orexin 1 receptor was 158. Besides, the Kb on human Orexin 1 receptor (Orexin A concentration 50 nM) worked out at 0.45 nM; at human orexin 2 receptor it was 71 nM. Moreover, the half-life in series [1] was determined as 0.417 h.
Consider `CCN(C(=O)c1cnc(C)nc1-c1ccccc1)[C@@H](C)COc1cnc(C(F)(F)F)cn1` [Example 9], for which the “OX2R Kb/OX1R Kb” value on human Orexin 1 receptor is 522. For the same molecule, the Kb stood at 1.8 nM on human Orexin 1 receptor (Orexin A concentration 0.5 nM) and 939 nM at human orexin 2 receptor. In series [1], this molecule showed a half-life of over 2.17 h.
`CCN(C(=O)c1nc(C)ccc1-n1nccn1)[C@@H](C)COc1cnc(C(F)(F)F)cn1` [Example 10]: on human Orexin 1 receptor, the “OX2R Kb/OX1R Kb” value stood at 300. The Kb at human Orexin 1 receptor (Orexin A concentration 0.5 nM) came to 2.5 nM; at human orexin 2 receptor it was 749 nM. The same molecule yielded a half-life in series [1] of over 2.17 h.
As for `CCN(C(=O)c1cnc(C)nc1-c1ccccc1)[C@@H](C)COc1ncc(C(F)(F)F)cn1` [Example 11], the “OX2R Kb/OX1R Kb” value on human Orexin 1 receptor came out at 860. Besides, the Kb on human Orexin 1 receptor (Orexin A concentration 0.5 nM) amounted to 1.5 nM; at human orexin 2 receptor, 1290 nM. In series [1], this molecule yielded a half-life of 1.47 h.
For `CCN(C(=O)c1nc(C)ccc1-n1nccn1)[C@@H](C)COc1ncc(C(F)(F)F)cc1F` [Example 12] the same measures were 268, 0.77 nM, 206 nM and 0.217 h.
On the same counts, the results for `CCN(C(=O)c1ncccc1-c1ccccc1)[C@@H](C)COc1ncc(C(F)(F)F)cn1` [Example 15] are 157, 4.5 nM, 705 nM and 1.6 h.
For the molecule `CCN(C(=O)c1ccc(C)nc1-n1nccn1)[C@@H](C)COc1ccc(C(F)(F)F)cn1` [Example 17], the “OX2R Kb/OX1R Kb” value at human Orexin 1 receptor amounted to 1618. Also, the Kb was determined as 0.22 nM on human Orexin 1 receptor (Orexin A concentration 50 nM) and 356 nM on human orexin 2 receptor. The same molecule yielded a half-life in series [1] of 0.983 h.
Turning to `CCN(C(=O)c1ncc(C)cc1-c1ccn(C)n1)[C@@H](C)COc1ccc(C(F)(F)F)cn1` [Example 20], the “OX2R Kb/OX1R Kb” value at human Orexin 1 receptor was 1660. The Kb at human Orexin 1 receptor (Orexin A concentration 50 nM) turned out to be 0.25 nM; on human orexin 2 receptor it was 415 nM. In series [1], this molecule yielded a half-life of 0.4 h.
For `CCN(C(=O)c1cc(F)cnc1-n1nccn1)[C@@H](C)COc1ncc(C(F)(F)F)cc1F` [Example 21], the “OX2R Kb/OX1R Kb” value at human Orexin 1 receptor was determined as 817. The Kb at human Orexin 1 receptor (Orexin A concentration 0.5 nM) came to 3.3 nM; on human orexin 2 receptor, 2700 nM. In addition, the half-life in series [1] is over 2.17 h.
For `CCN(C(=O)c1cc(F)cnc1-n1nccn1)[C@@H](C)COc1ccc(Cl)cn1` [Example 22] the same measures were 215, 4.7 nM, 1010 nM and 1.37 h.
On the same counts, the results for `CCN(C(=O)c1nc(C)ccc1-n1nccn1)[C@@H](C)COc1ncc(C(F)(F)F)cn1` [Example 23] are 439, 6.6 nM, 2900 nM and 1.83 h.
